# Legend:
# [1] = target: T1, Saccharomyces cerevisiae EF2 in crude S30 extracts (Saccharomyces cerevisiae, UniProt P32324); assay: Competitive binding assay, Saccharomyces S30 extract; conditions: for displacement of ^3H-Compound I binding (in words): unlabelled competitor
# T1 construct: A Saccharomyces cerevisiae strain containing wild-type EF2 is inoculated into medium; endogenous in cells; host or cells: Saccharomyces cerevisiae strain with wild-type EF2, S30 extract
# Method: (§1) A competitive assay can be performed involving the displacement of a radiolabeled compound with specificity for pathogen EF2 such as ^3H-Compound I binding to Saccharomyces cerevisiae EF2 in crude S30 extracts. As proof of the specificity of inhibitor found with the S30 binding assay, binding competition can also be performed with purified EF2 in the presence of washed ribosomes
# In a microfuge tube 100 μl assay mixture contains: 10 μg yeast S-30, 25 μM GTP-γ-s (0.5 μl of 5 mM stock), dilutions of agent to be examined for ability to compete for binding and Buffer B to bring volume to 98 μl. Vortex and incubate at room temperature 5 min. Add 2 μl ^3H-Compound I (1:20 dilution in water). Vortex and incubate for 20-30 min.
# To a Sephadex G-75 column was pre-soaked in Buffer A (20 gm/400 ml) several hours. Mini columns were packed with G-75 precisely to the mark line (˜1.6 ml ) and allowed to settle by washing with 2 ml Buffer A.
# The 100μl incubated mixtures are loaded onto G-75 columns (no collection) As soon as the sample has entered the gel bed (approximately 20 sec), 0.7 ml Buffer A is added and eluate is collected in mini vials 3 ml Scintiverse is added and vials counted.
# Saccharomyces S30 extract: A Saccharomyces cerevisiae strain containing wild-type EF2 is inoculated into medium containing in g/l: 10 g Bacto Yeast Extract, 20 g Bacto Peptone, 20 g dextrose and 60 mg adenine and incubated with shaking at 30° C. until mid to late logarithmic phase (A600˜2). The cells are harvested and washed twice with water. Pellets may be stored at −70° C. indefinitely prior to disruption. For breakage, cells are resuspended in 2 vol of buffer containing 50 mM Tris-Cl pH 7.4, 10% (wt/vol) glycerol, 2 mM MgCl2, 2 mM dithiothreitol, 1 mM phenylmethylsulfonyl fluoride and broken by prolonged agitation with acid-washed 0.5 mm glass beads. The supernatant is centrifuged at […] for 15 min to sediment cell debris.
# [2] = system: S. cerevisiae sordarin sensitive strain (sS1); assay: Growth inhibition assay I, sordarin sensitive strain; type: cell-based; conditions: Saccharomyces cerevisiae; 0.5 μg applied; agar plate, 30° C., 16-24 hours; read-out: clear zone of inhibition
# Text: (§2) An assay has been developed to identify antifungal compounds with sordarin like activities using S. cerevisiae as as a surrogate organism. It consists of a two plate differential zone assay using sordarin sensitive (sS1) and resistant strains (sR1) that contain an erg6 deletion, which increases membrane permeability and facilitates the uptake of various substances. In this screen, active compounds show a clear zone on the sensitive strain plate and no zone for the resistant strain plate.
# (§3) Approximately 1×10^6 cells per ml are added to growth medium containing 2% agar. Medium and cells are mixed, poured into plates, and allowed to solidify. Test compounds or fermentation extracts are applied with the intent of identifying samples which inhibit the growth of these yeast. The cultures are incubated at 30° C. for 16-24 hours. A similar assay can also be run in a high-throughput microtiter format by inoculating cells into liquid growth medium containing test compounds or fermentation extracts. Active compounds can be identified by assaying for growth inhibition, which can be determined by measuring the optical density of the individual cultures.
# [3] = system: S. cerevisiae sordarin resistant strain (sR1); assay: Growth inhibition assay I, sordarin resistant strain; type: cell-based, Saccharomyces cerevisiae; conditions: 0.5 μg applied; agar plate, 30° C., 16-24 hours
# Text: as §2, §3
# [4] = system: mammalian cell S30 extracts; assay: Binding assay with mammalian cell S30 extracts
# Text: as §1
# (§4) The binding is displaceable by unlabelled L-793,422, sordarin and analogs. No binding is seen with mammalian cell or wheat germ S30 extracts.
# wheat germ S30 extracts = assay: Binding assay with wheat germ S30 extracts
# Text: as §1, §4
# [5] = target: T2, purified Saccharomyces EF2 (Saccharomyces cerevisiae, UniProt P32324); assay: Binding assay with purified components, Saccharomyces EF2; conditions: for binding of labelled compound (in words): yeast EF2
# T2 construct: The ribosomes and EF2 are both prepared by published methods; endogenous in cells; host or cells: Saccharomyces cerevisiae; EF2 purified by the method of Skogerson, Methods in Enzymology LX
# Method: (§5) This assay involves the same procedure as disclosed above substituting 0.4 A260 units salt-washed S. cerevisiae ribosomes and 1 pmol purified EF2 for the 10 μg S30 in the above assay. The ribosomes and EF2 are both prepared by published methods (L. Skogerson, Methods in Enzymology, Vol LX,p676-685).
# (§6) As with the S30 binding assay, this assay may be used to either identify the component binding drug, or to examine competition by unknown agents.
# rat EF2 = target: T3, rat EF2 (Rattus norvegicus, UniProt P05197); assay: Binding assay with purified components, rat EF2; conditions: yeast EF2 replaced by rat (liver) EF2
# T3 construct: from tissue; host or cells: rat liver
# Method: as §5, §6
# wheat germ EF2 = assay: Binding assay with purified components, wheat germ EF2; conditions: yeast EF2 replaced by wheat germ EF2
# Method: as §5, §6
# T2 sequence (P32324 whole entry): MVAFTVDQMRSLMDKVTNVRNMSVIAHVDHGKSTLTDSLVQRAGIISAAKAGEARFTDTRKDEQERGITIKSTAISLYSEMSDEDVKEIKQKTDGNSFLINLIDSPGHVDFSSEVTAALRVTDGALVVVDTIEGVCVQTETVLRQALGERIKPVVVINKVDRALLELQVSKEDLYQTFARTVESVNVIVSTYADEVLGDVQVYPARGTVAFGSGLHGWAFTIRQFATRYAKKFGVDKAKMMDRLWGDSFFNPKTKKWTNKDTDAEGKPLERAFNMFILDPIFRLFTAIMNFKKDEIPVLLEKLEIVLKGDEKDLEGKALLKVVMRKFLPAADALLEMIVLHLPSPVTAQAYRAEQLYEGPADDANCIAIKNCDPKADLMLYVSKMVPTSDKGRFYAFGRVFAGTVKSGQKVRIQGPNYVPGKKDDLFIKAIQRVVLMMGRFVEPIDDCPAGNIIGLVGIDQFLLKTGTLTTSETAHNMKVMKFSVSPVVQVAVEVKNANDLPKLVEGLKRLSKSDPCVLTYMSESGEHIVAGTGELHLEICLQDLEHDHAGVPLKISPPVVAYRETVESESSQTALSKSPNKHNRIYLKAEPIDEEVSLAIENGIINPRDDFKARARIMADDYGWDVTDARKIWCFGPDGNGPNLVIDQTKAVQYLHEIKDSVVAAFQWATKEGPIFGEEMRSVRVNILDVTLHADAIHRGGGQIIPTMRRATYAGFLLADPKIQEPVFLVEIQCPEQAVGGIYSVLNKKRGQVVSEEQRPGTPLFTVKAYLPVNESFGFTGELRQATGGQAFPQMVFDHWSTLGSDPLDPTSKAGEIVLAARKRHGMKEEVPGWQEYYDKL
# T1 sequence (P32324 whole entry): as above
Structure (SMILES),"IC50 ([1]; 10 μg S30 extract from wild-type Saccharomyces, read-out: IC50 for displacement of ^3H-Compound I binding (converted))",displacement of ^3H-Compound I binding (in words) ([1]; Saccharomyces S30 extracts),zone of inhibition at 0.5 µg/disc [2],zone of inhibition (in words) [3],amount of labelled compound bound ([1]; 10 μg S30 extract from wild-type Saccharomyces),binding of labelled compound (in words) ([1]; Saccharomyces S30 extracts),binding of labelled compound (in words) [4],binding of labelled compound (in words) (wheat germ S30 extracts),amount of labelled compound bound ([5]; 0.65 pmol purified Saccharomyces EF2 plus 4 pmol purified Saccharomyces ribosomes),"binding of labelled compound (in words) ([5]; yeast ribosomes replaced by rat (liver) ribosomes, listed as 3H-L793,422)","binding of labelled compound (in words) ([5]; yeast ribosomes replaced by rat (liver) ribosomes, listed as labelled compound)","binding of labelled compound (in words) ([5]; yeast ribosomes replaced by wheat germ ribosomes, listed as 3H-L793,422)","binding of labelled compound (in words) ([5]; yeast ribosomes replaced by wheat germ ribosomes, listed as labelled compound)","binding of labelled compound (in words) (rat EF2; listed as 3H-L793,422)",binding of labelled compound (in words) (rat EF2; listed as labelled compound),"binding of labelled compound (in words) (wheat germ EF2; listed as 3H-L793,422)",binding of labelled compound (in words) (wheat germ EF2; listed as labelled compound)
"CO[C@H]1[C@@H](O)[C@H](O)[C@H](OC[C@@]23C[C@@H]4[C@H](C)CC[C@H]4[C@@]4(C=O)CC2C=C(C(C)C)[C@@]34C(=O)O)O[C@@H]1C [sordarin, reference compound]",6.09 nM,displaceable,20 mm,no zone,,,,,,,,,,,,,
CC(C)COCC12CC3C(C)CCC3[C@@]3(C=O)C[C@@H]1C=C(C(C)C)[C@@]23C(=O)O (stereo partly drawn) [^3H-Compound I],,,,,approximately 0.5 pmol,Specific binding,No binding,No binding,approximately 0.6 pmol,no effect on binding,does not reduce binding,no effect on binding,does not reduce binding,abolishes binding,abolishes binding to background levels,abolishes binding,abolishes binding to background levels
CC(C)COCC12CC3C(C)CCC3[C@@]3(C=O)C[C@@H]1C=C(C(C)C)[C@@]23C(=O)O (stereo partly drawn) [Compound I],,displaceable,,,,,,,,,,,,,,,

# Reference: patent publication US20020160441A1, “Protein elongation factor 2 as a target for antifungal and antiparasitic agents” (Merck & Co., Inc., priority 1998, published 2002)
